Data: patent US20080194482A1, “Selective Apac2 Receptor Peptide Agonists” (priority 2005, published 2008)
Square brackets hold non-standard residues; d marks the D form. Peptide text beside a SMILES is read from it. * marks the point of attachment. Orn = NCCC[C@H](N)C(=O)O; Hexanoyl = CCCCCC(=O)*; Aib = CC(C)(N)C(=O)O

How the values were obtained:
human VPAC2 [1] = molecular target: T1, human VPAC2 (Homo sapiens, UniProt P41587); assay: Alpha screen cAMP assay, in vitro potency at human VPAC2 receptor; assay type: cell-based; conditions: cAMP generation; single result from two analyses in a single run, some values average of more than one experiment
T1 construct: expressed in transfected cells
T1 sequence (P41587 24-438): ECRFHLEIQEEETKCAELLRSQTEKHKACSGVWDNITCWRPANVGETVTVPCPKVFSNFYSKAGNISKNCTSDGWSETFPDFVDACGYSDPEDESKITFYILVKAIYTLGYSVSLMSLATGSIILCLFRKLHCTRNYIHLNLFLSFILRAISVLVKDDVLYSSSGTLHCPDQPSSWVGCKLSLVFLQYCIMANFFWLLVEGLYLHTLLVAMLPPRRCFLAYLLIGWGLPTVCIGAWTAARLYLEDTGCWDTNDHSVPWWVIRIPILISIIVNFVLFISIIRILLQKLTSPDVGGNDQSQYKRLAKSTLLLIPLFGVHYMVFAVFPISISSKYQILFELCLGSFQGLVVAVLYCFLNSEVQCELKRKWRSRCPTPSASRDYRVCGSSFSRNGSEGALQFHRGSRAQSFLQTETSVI

human VPAC2 [2] = molecular target: T1, human VPAC2; assay: Filter binding assay, 125I-labeled VIP tracer, VPAC2 membranes; conditions: read-out: Human VPAC2 Receptor Binding (IC50; nM)
human PAC1 = molecular target: T2, human PAC1 (Homo sapiens, UniProt P41586); assay: Filter binding assay, 125I-labeled PACAP-27 tracer, PAC1 membranes; conditions: read-out: Human PAC1 Receptor Binding (IC50; nM)
T2 construct: expressed in transfected cells
T2 sequence (P41586 21-468): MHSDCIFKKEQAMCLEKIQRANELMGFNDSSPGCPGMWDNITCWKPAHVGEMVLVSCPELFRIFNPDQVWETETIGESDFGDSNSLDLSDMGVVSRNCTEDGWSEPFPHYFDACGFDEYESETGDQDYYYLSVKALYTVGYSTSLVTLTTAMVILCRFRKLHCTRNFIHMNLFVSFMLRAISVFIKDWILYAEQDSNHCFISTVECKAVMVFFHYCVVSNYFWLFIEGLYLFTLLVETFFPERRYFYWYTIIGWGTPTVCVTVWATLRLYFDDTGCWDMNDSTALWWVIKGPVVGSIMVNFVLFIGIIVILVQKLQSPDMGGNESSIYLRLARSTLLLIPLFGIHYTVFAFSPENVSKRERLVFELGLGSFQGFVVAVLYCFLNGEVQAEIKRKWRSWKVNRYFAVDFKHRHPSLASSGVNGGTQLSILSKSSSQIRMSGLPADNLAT

rat VPAC2 receptor = molecular target: T3, rat VPAC2 receptor (Rattus norvegicus, UniProt P35000); assay: DiscoveRx cAMP assay, in vitro potency at rat VPAC2 receptor; assay type: cell-based; conditions: CHO-PO cells transiently transfected with rat VPAC2; cAMP generation; mean of two independent runs
T3 construct: expressed in transfected cells; host or cells: CHO-PO (transient, Lipofectamine)
T3 sequence (P35000 23-437): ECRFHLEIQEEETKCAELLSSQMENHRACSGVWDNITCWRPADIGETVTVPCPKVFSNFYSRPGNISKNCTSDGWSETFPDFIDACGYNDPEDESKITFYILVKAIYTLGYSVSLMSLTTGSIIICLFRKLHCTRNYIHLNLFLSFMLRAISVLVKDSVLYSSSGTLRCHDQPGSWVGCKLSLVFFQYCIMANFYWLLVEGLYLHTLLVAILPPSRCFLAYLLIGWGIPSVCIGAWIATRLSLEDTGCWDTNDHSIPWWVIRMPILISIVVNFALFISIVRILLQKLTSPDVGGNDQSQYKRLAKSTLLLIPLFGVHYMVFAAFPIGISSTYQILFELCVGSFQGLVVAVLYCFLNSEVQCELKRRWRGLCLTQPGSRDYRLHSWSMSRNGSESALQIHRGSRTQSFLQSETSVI
Procedure: DiscoveRx: CHO-PO cells are transiently transfected with rat VPAC1 or VPAC2 receptor DNA using commercially available transfection reagents (Lipofectamine from Invitrogen). The cells are seeded at a density of 10,000/well in a 96-well plate and are allowed to grow for 3 days in […] culture medium. At day 3, the assay is performed.
On the day of the experiment, the medium is removed. Also, the cells are washed twice. The cells are incubated in assay buffer plus IBMX for 15 minutes at room temperature. Afterwards, the stimuli are added and are dissolved in assay buffer. The stimuli are present for 30 minutes. Then, the assay buffer is gently removed. The cell lysis reagent of the DiscoveRx cAMP kit is added. Thereafter, the standard protocol for developing the cAMP signal as described by the manufacturer is used (DiscoveRx Inc., USA). EC50 values for cAMP generation are calculated from the raw signal or are based on absolute cAMP levels as determined by a standard curve performed on each plate.
Results for each agonist are the mean of two independent runs. Rat VPAC1 and VPAC2 results are only generated using the DiscoveRx assay.

human VPAC1 = molecular target: T4, human VPAC1 (Homo sapiens, UniProt P32241); assay: Filter binding assay, 125I-labeled VIP tracer, VPAC1 membranes; conditions: read-out: Human VPAC1 Receptor Binding (IC50; nM)
T4 construct: expressed in transfected cells
T4 sequence (P32241 31-457): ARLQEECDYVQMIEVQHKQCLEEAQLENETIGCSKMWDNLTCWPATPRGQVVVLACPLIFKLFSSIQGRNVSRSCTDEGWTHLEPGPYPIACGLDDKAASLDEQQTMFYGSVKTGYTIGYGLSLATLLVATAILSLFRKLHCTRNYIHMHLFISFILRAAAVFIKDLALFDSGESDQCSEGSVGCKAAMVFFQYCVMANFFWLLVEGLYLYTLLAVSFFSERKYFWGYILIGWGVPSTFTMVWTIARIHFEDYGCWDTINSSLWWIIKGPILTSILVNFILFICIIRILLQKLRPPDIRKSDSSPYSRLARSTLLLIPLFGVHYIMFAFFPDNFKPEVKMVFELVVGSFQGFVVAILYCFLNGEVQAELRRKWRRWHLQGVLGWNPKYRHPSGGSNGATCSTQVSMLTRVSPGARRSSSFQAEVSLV

[3] = Rat serum stability (activity remaining, CHO-VPAC2 DiscoveRx read-out); assay type: in vitro ADME
Procedure, shortened: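 Peptides preincubated overnight in rat serum at 37 °C without aprotinin versus 4 °C with aprotinin, then tested as 11-point 5× dilutions in duplicate on CHO-VPAC2 cells, 30 min at RT. cAMP measured by DiscoveRx kit against standards; EC50 derived for each aliquot.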

Row | SMILES | EC50 (human VPAC2 [1]) [nM] | IC50 (human VPAC2 [2]) [nM] | IC50 (human PAC1) [nM] | EC50 (rat VPAC2 receptor) [nM] | IC50 (human VPAC1) [nM] | Rat Serum Stability (estimated purity in % after overnight incub.) [3] [%]
1 | CCCCCC(=O)N[C@@H](Cc1c[nH]cn1)C(=O)N[C@@H](CO)C(=O)N[C@@H](CC(=O)O)C(=O)N[C@@H](C)C(=O)N[C@H](C(=O)N[C@@H](Cc1ccccc1)C(=O)N[C@H](C(=O)N[C@@H](CC(=O)O)C(=O)N[C@@H](CC(N)=O)C(=O)N[C@@H](Cc1ccc(O)cc1)C(=O)N[C@H](C(=O)N[C@@H](CCCN)C(=O)N[C@@H](CC(C)C)C(=O)N[C@@H](CCCNC(=N)N)C(=O)NC(C)(C)C(=O)N[C@@H](CO)C(=O)N[C@H](C(=O)N[C@@H](C)C(=O)N[C@@H](C)C(=O)NC(C)(C)C(=O)N[C@@H](CCCCN)C(=O)N[C@@H](Cc1ccc(O)cc1)C(=O)N[C@@H](CC(C)C)C(=O)N[C@@H](CCC(N)=O)C(=O)N[C@@H](CO)C(=O)N[C@H](C(=O)N[C@@H](CCCN)C(=O)N[C@@H](CC(N)=O)C(=O)N[C@@H](CCCN)C(=O)NCC(=O)NCC(=O)N1CCC[C@H]1C(=O)N[C@@H](CO)C(=O)N[C@@H](CO)C(=O)NCC(=O)N[C@@H](C)C(=O)N1CCC[C@H]1C(=O)N1CCC[C@H]1C(=O)N1CCC[C@H]1C(=O)N[C@@H](CO)C(=O)O)[C@@H](C)CC)C(C)C)[C@@H](C)O)[C@@H](C)O)C(C)C [Agonist P390] (Hexanoyl-HSDAVFTDNYT[Orn]LR[Aib]SVAA[Aib]KYLQSI[Orn]N[Orn]GGPSSGAPPPS-OH; C-terminus assumed) | 0.12 | 0.26 | > 25000 | 0.09 |  | 
2 | CCCCCC(=O)N[C@@H](Cc1c[nH]cn1)C(=O)N[C@@H](CO)C(=O)N[C@@H](CC(=O)O)C(=O)N[C@@H](C)C(=O)N[C@H](C(=O)N[C@@H](Cc1ccccc1)C(=O)N[C@H](C(=O)N[C@@H](CC(=O)O)C(=O)N[C@@H](CCC(N)=O)C(=O)N[C@@H](Cc1ccc(O)cc1)C(=O)N[C@H](C(=O)N[C@@H](CCCN)C(=O)N[C@@H](CC(C)C)C(=O)N[C@@H](CCCNC(=N)N)C(=O)NC(C)(C)C(=O)N[C@@H](CCC(N)=O)C(=O)N[C@H](C(=O)N[C@@H](C)C(=O)N[C@@H](C)C(=O)NC(C)(C)C(=O)N[C@@H](CCCN)C(=O)N[C@@H](Cc1ccc(O)cc1)C(=O)N[C@@H](CC(C)C)C(=O)N[C@@H](CCC(N)=O)C(=O)N[C@@H](CO)C(=O)N[C@H](C(=O)N[C@@H](CCCN)C(=O)N[C@@H](CCCN)C(=O)NCC(=O)NCC(=O)N1CCC[C@H]1C(=O)N[C@@H](CO)C(=O)N[C@@H](CO)C(=O)NCC(=O)N[C@@H](C)C(=O)N1CCC[C@H]1C(=O)N1CCC[C@H]1C(=O)N1CCC[C@H]1C(=O)N[C@@H](CO)C(=O)O)[C@@H](C)CC)C(C)C)[C@@H](C)O)[C@@H](C)O)C(C)C [Agonist P396] (Hexanoyl-HSDAVFTDQYT[Orn]LR[Aib]QVAA[Aib][Orn]YLQSI[Orn][Orn]GGPSSGAPPPS-OH; C-terminus assumed) | 0.11 | 0.26 | > 25000 | 0.05 | > 3000 | 93.07
3 | CCCCCC(=O)N[C@@H](Cc1c[nH]cn1)C(=O)N[C@@H](CO)C(=O)N[C@@H](CC(=O)O)C(=O)N[C@@H](C)C(=O)N[C@H](C(=O)N[C@@H](Cc1ccccc1)C(=O)N[C@H](C(=O)N[C@@H](CCC(=O)O)C(=O)N[C@@H](CCC(N)=O)C(=O)N[C@@H](Cc1ccc(OC)cc1)C(=O)N[C@H](C(=O)N[C@@H](CCCN)C(=O)N[C@@H](CC(C)C)C(=O)N[C@@H](CCCNC(=N)N)C(=O)NC(C)(C)C(=O)N[C@@H](CCC(N)=O)C(=O)N[C@@H](CC(C)C)C(=O)N[C@@H](C)C(=O)N[C@@H](C)C(=O)NC(C)(C)C(=O)N[C@@H](CCCN)C(=O)N[C@@H](Cc1ccc(O)cc1)C(=O)N[C@@H](CC(C)C)C(=O)N[C@@H](CCC(N)=O)C(=O)N[C@@H](CO)C(=O)N[C@H](C(=O)N[C@@H](CCCN)C(=O)N[C@@H](CCCN)C(=O)NCC(=O)NCC(=O)N1CCC[C@H]1C(=O)N[C@@H](CO)C(=O)N[C@@H](CO)C(=O)NCC(=O)N[C@@H](C)C(=O)N1CCC[C@H]1C(=O)N1CCC[C@H]1C(=O)N1CCC[C@H]1C(=O)N[C@@H](CO)C(N)=O)[C@@H](C)CC)[C@@H](C)O)[C@@H](C)O)C(C)C [Agonist P487] (Hexanoyl-HSDAVFTEQY(Me)T[Orn]LR[Aib]QLAA[Aib][Orn]YLQSI[Orn][Orn]GGPSSGAPPPS-NH2) | 0.24 | 0.64 |  | 0.03 | > 1000 | 76.98
